# From the supplement of paper PMC10307832
# Key:
# Test in all cases: relative viability (nuclei count vs DMSO), 5 days (fraction); higher = more cells survive
# NCI-H520 = test system: NCI-H520
# Outline: (§1)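 Nuclei were stained with Hoechst during a one-step fixation (final 0.05% Triton X-100, 1% formaldehyde, 1 ug/ml Hoechst) carried out 5 days after dosing, then counted on 4× images. The cells, lung cancer lines in 1536-well plates, had been dosed by pin tool the day after seeding with one drug alone or a fixed anchor-drug dose plus five library-drug doses (not always all listed) in √10 steps. Relative viability is the nuclei count in treated wells divided by that in vehicle wells, and each value is the median of duplicate plates.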
# LK-2 = test system: LK-2
# Outline: as §1
# NCI-H460 = test system: NCI-H460
# Outline: as §1
# A-427 = test system: A-427
# Outline: as §1
# ChaGo-K-1 = test system: ChaGo-K-1
# Outline: as §1
# BEN = test system: BEN
# Outline: as §1
# NCI-H2228 = test system: NCI-H2228
# Outline: as §1
# NCI-H358 = test system: NCI-H358
# Outline: as §1
# NCI-H2085 = test system: NCI-H2085
# Outline: as §1
# SW 1573 = test system: SW 1573
# Outline: as §1
# NCI-H1650 = test system: NCI-H1650
# Outline: as §1
# NCI-H727 = test system: NCI-H727
# Outline: as §1
# NCI-H2347 = test system: NCI-H2347
# Outline: as §1
# NCI-H322M = test system: NCI-H322M
# Outline: as §1
# EKVX = test system: EKVX
# Outline: as §1
# NCI-H3122 = test system: NCI-H3122
# Outline: as §1
# NCI-H596 = test system: NCI-H596
# Outline: as §1
# NCI-H1755 = test system: NCI-H1755
# Outline: as §1
# NCI-H650 = test system: NCI-H650
# Outline: as §1
# NCI-H1563 = test system: NCI-H1563
# Outline: as §1
# NCI-H838 = test system: NCI-H838
# Outline: as §1
smiles,measurement,setting,value
COCC1(CO)C(=O)C2CCN1CC2 (centres undefined) [PRIMA-1MET] + C[C@@H](Oc1cc(-c2cnn(C3CCNCC3)c2)cnc1N)c1c(Cl)ccc(F)c1Cl [Crizotinib] (partner 1 µM),relative viability,NCI-H520; first compound 0.2 µM,0.639
same,relative viability,NCI-H520; first compound 0.6325 µM,0.841
same,relative viability,NCI-H520; first compound 6.325 µM,0.659
same,relative viability,NCI-H520; first compound 20 µM,0.135
same,relative viability,LK-2; first compound 0.2 µM,0.221
same,relative viability,LK-2; first compound 0.6325 µM,0.182
same,relative viability,LK-2; first compound 2 µM,0.22
same,relative viability,LK-2; first compound 6.325 µM,0.255
same,relative viability,LK-2; first compound 20 µM,0.18
same,relative viability,NCI-H460; first compound 0.2 µM,1.45
same,relative viability,NCI-H460; first compound 0.6325 µM,0.579
same,relative viability,NCI-H460; first compound 2 µM,0.898
same,relative viability,NCI-H460; first compound 6.325 µM,0.0132
same,relative viability,NCI-H460; first compound 20 µM,0.0052
same,relative viability,A-427; first compound 0.2 µM,0.935
same,relative viability,A-427; first compound 0.6325 µM,0.721
same,relative viability,A-427; first compound 2 µM,0.769
same,relative viability,A-427; first compound 6.325 µM,0.959
same,relative viability,A-427; first compound 20 µM,0.822
same,relative viability,ChaGo-K-1; first compound 0.2 µM,1.31
same,relative viability,ChaGo-K-1; first compound 0.6325 µM,0.898
same,relative viability,ChaGo-K-1; first compound 2 µM,1.02
same,relative viability,ChaGo-K-1; first compound 6.325 µM,1.15
same,relative viability,ChaGo-K-1; first compound 20 µM,1.02
same,relative viability,BEN; first compound 0.2 µM,0.973
same,relative viability,BEN; first compound 0.6325 µM,0.88
same,relative viability,BEN; first compound 6.325 µM,0.974
same,relative viability,BEN; first compound 20 µM,0.735
same,relative viability,NCI-H2228; first compound 0.2 µM,0.414
same,relative viability,NCI-H2228; first compound 0.6325 µM,0.455
same,relative viability,NCI-H2228; first compound 2 µM,0.444
same,relative viability,NCI-H2228; first compound 6.325 µM,0.547
same,relative viability,NCI-H2228; first compound 20 µM,0.0537
same,relative viability,NCI-H358; first compound 0.2 µM,0.688
same,relative viability,NCI-H358; first compound 0.6325 µM,0.59
same,relative viability,NCI-H358; first compound 6.325 µM,0.526
same,relative viability,NCI-H358; first compound 20 µM,0.152
same,relative viability,NCI-H2085; first compound 0.2 µM,0.886
same,relative viability,NCI-H2085; first compound 0.6325 µM,0.747
same,relative viability,NCI-H2085; first compound 2 µM,0.692
same,relative viability,NCI-H2085; first compound 6.325 µM,0.518
same,relative viability,NCI-H2085; first compound 20 µM,0.155
same,relative viability,SW 1573; first compound 0.2 µM,0.935
same,relative viability,SW 1573; first compound 0.6325 µM,0.571
same,relative viability,SW 1573; first compound 2 µM,0.843
same,relative viability,SW 1573; first compound 6.325 µM,0.276
same,relative viability,SW 1573; first compound 20 µM,0.0264
same,relative viability,NCI-H1650; first compound 0.2 µM,1.22
same,relative viability,NCI-H1650; first compound 0.6325 µM,1.02
same,relative viability,NCI-H1650; first compound 2 µM,1
same,relative viability,NCI-H1650; first compound 6.325 µM,0.992
same,relative viability,NCI-H1650; first compound 20 µM,0.659
same,relative viability,NCI-H727; first compound 0.2 µM,0.841
same,relative viability,NCI-H727; first compound 0.6325 µM,0.873
same,relative viability,NCI-H727; first compound 2 µM,0.82
same,relative viability,NCI-H727; first compound 6.325 µM,0.715
same,relative viability,NCI-H727; first compound 20 µM,0.117
same,relative viability,NCI-H2347; first compound 0.2 µM,0.705
same,relative viability,NCI-H2347; first compound 0.6325 µM,0.667
same,relative viability,NCI-H2347; first compound 2 µM,0.295
same,relative viability,NCI-H2347; first compound 6.325 µM,0.771
same,relative viability,NCI-H2347; first compound 20 µM,0.682
same,relative viability,NCI-H322M; first compound 0.2 µM,0.75
same,relative viability,NCI-H322M; first compound 6.325 µM,0.991
same,relative viability,NCI-H322M; first compound 20 µM,0.82
same,relative viability,EKVX; first compound 0.2 µM,1.11
same,relative viability,EKVX; first compound 0.6325 µM,0.893
same,relative viability,EKVX; first compound 2 µM,0.665
same,relative viability,EKVX; first compound 6.325 µM,0.997
same,relative viability,EKVX; first compound 20 µM,0.891
same,relative viability,NCI-H3122; first compound 0.2 µM,0.317
same,relative viability,NCI-H3122; first compound 0.6325 µM,0.25
same,relative viability,NCI-H3122; first compound 2 µM,0.259
same,relative viability,NCI-H3122; first compound 6.325 µM,0.286
same,relative viability,NCI-H3122; first compound 20 µM,0.284
same,relative viability,NCI-H596; first compound 0.2 µM,1.08
same,relative viability,NCI-H596; first compound 0.6325 µM,0.962
same,relative viability,NCI-H596; first compound 2 µM,0.863
same,relative viability,NCI-H596; first compound 6.325 µM,1.04
same,relative viability,NCI-H596; first compound 20 µM,0.174
same,relative viability,NCI-H1755; first compound 0.2 µM,0.996
same,relative viability,NCI-H1755; first compound 0.6325 µM,0.825
same,relative viability,NCI-H1755; first compound 2 µM,0.826
same,relative viability,NCI-H1755; first compound 6.325 µM,0.915
same,relative viability,NCI-H1755; first compound 20 µM,0.81
same,relative viability,NCI-H650; first compound 0.2 µM,0.894
same,relative viability,NCI-H650; first compound 2 µM,0.616
same,relative viability,NCI-H650; first compound 6.325 µM,0.675
same,relative viability,NCI-H650; first compound 20 µM,0.109
same,relative viability,NCI-H1563; first compound 0.2 µM,0.887
same,relative viability,NCI-H1563; first compound 0.6325 µM,0.806
same,relative viability,NCI-H1563; first compound 2 µM,0.868
same,relative viability,NCI-H1563; first compound 6.325 µM,0.843
same,relative viability,NCI-H1563; first compound 20 µM,0.262
same,relative viability,NCI-H838; first compound 0.2 µM,1.06
same,relative viability,NCI-H838; first compound 0.6325 µM,0.755
same,relative viability,NCI-H838; first compound 2 µM,0.793
same,relative viability,NCI-H838; first compound 6.325 µM,0.906
same,relative viability,NCI-H838; first compound 20 µM,0.318
